# Results: patent US20150209403A1, “Dose Adjustment” (AbbVie Inc., priority 2014, published 2015)
# Columns and labels:
# [1] = Drug interaction study of pravastatin and rosuvastatin with 3D or 2D; assay type: in vivo, human
# Procedure: After a washout, multiple doses of pravastatin (10 mg QD, N=12) and rosuvastatin (5 mg QD, N=12) were administered with and without 3D or 2D to steady state in Period 2. […] Intensive PK sampling was performed in both periods and PK parameters estimated by noncompartmental analyses. Safety was evaluated through assessment of adverse events, vital signs, ECG and clinical laboratory tests.
# [2] = Drug interaction study of 3D regimen with carbamazepine (CBZ); assay type: in vivo, human
# Procedure: Single doses of the 3D regimen (Compound 1/r/ombitasvir 150/100/25 mg+dasabuvir 250 mg) were administered alone and in the presence of steady state CBZ 200 mg BID in 12 healthy subjects. Drug concentrations were determined from blood samples collected on multiple study days and PK parameters were estimated by noncompartmental analyses. Safety was assessed (adverse events, vital signs, ECG, etc.) throughout the study.
# [3] = DDI studies of 3D regimen with HIV-1 protease inhibitors (ATV, DRV, LPV/r); settings: for tolerability: co-administration with 3D regimen; for Total bilirubin elevation Grade 3, subjects: 3D regimen DDI study; for Cmax, AUC and Ctrough, % change: HIV PI co-administered with 3D regimen
# [4] = RPV 75 mg QD; cited from earlier work
# [5] = DDI studies of 3D regimen with HIV-1 N(t)RTIs, NNRTIs and INSTI; assay type: in vivo, human; settings: for exposures (Cmax and AUCτ), % change: both; for exposures (Cmax and AUCτ), % change / exposures (Cmax and AUCτ), effect: human, in vivo
# [6] = Drug interaction study of 3D or 2D regimen with omeprazole; settings: human, in vivo, 40 mg
# Procedure: In 24 healthy volunteers omeprazole (40 mg) were administered on day 1 and days 20-24. The 3D or 2D regimen (Compound 1/r 150/100 mg QD+ombitasvir 25 mg QD±dasabuvir 250 mg BID) was administered on days 6-24. Intensive PK sampling was performed for study drugs when dosed alone and during coadministration and parameters estimated by noncompartmental analyses. Safety was evaluated through assessment of adverse events, vital signs, ECG and clinical laboratory tests.
# [7] = Drug interaction study of 3D or 2D with ketoconazole (KTZ); assay type: in vivo, human
# Procedure: Single doses of Compound 1/r/ombitasvir 150/100/25 mg+/−dasabuvir 250 mg were administered alone and in the presence of steady state KTZ 400 mg QD in 24 healthy volunteers. Drug concentrations were determined from intensive blood samples and PK parameters were estimated by noncompartmental analyses. Safety assessment (adverse events, clinical labs, vital signs, ECG) was done throughout the study.
# [8] = Drug interaction study of 3D or 2D regimen with digoxin; assay type: in vivo, human; settings: healthy volunteers
# Procedure: Single doses of digoxin (0.5 mg) were administered alone and in presence of steady state Compound 1/r 150/100 mg QD+ombitasvir 25 mg QD+/−dasabuvir […] BID in 24 healthy volunteers. Drug concentrations were
# determined from intensive blood samples collected on multiple study days and PK parameters were estimated by noncompartmental analyses. Safety was assessed (adverse events, vital signs, ECG, etc.) throughout the study.
# [9] = human, in vivo
# Description: Safety was monitored throughout the study.
# [10] = single dose 3D or 2D with steady state KTZ 400 mg QD
# [11] = LPV/r 800/200 mg QPM with 3D regimen
smiles,measurement,setting,value
CC(C)c1nc(N(C)S(C)(=O)=O)nc(-c2ccc(F)cc2)c1/C=C/[C@@H](O)C[C@@H](O)CC(=O)O [Rosuvastatin],"AUC, % higher",[1]; statin with 2D,32%
same,"Cmax, % higher",[1]; statin with 2D,161%
same,"AUC, % higher",[1]; statin with 3D,159%
same,"Cmax, % higher",[1]; statin with 3D,613%
"NC(=O)N1c2ccccc2C=Cc2ccccc21 [CBZ, Carbamazepine]","Increases in ALT and AST, peak",[2]; 3D coadministered with CBZ,Grade 3 in 1 subject
same,"exposures, % increase",[2]; CBZ with 3D,≤ 17%
same,tolerability,[2]; coadministration of 3D with CBZ,generally tolerated
"CC(C)CN(C[C@@H](O)[C@H](Cc1ccccc1)NC(=O)O[C@H]1CO[C@H]2OCC[C@H]21)S(=O)(=O)c1ccc(N)cc1 [DRV, Darunavir]",tolerability,[3],generally well tolerated
"Cc1cc(/C=C/C#N)cc(C)c1Nc1ccnc(Nc2ccc(C#N)cc2)n1 [RPV, Rilpivirine]","Cmax, fold higher than Cmax with RPV 25 mg QD",[4],approximately 2.6 fold
same,QTcF increase,[4],10.7 ms
"COc1c(-c2ccc3cc(NS(C)(=O)=O)ccc3c2)cc(-n2ccc(=O)[nH]c2=O)cc1C(C)(C)C [Compound 2, N-(6-(3-tert-butyl-5-(2,4-dioxo-3,4-dihydropyrimidin-1(2H)-yl)-2-methoxyphenyl)naphthalen-2-yl)methanesulfonamide]","exposures (Cmax and AUCτ), % change",[5],up to ±18%
same,"exposures (Cmax and AUCτ), effect",[5],not affected
same,"Cmax, AUC or Ctrough, % change",[6],< 20%
same,Exposures increased by,[7]; [10],up to 42%
"CC(=O)N1CCN(c2ccc(OCC3COC(Cn4ccnc4)(c4ccc(Cl)cc4Cl)O3)cc2)CC1 (centres unmarked) [KTZ, Ketoconazole]",AUC24 increased by,[7]; in vivo,105-117%
same,"Cmax, % change",[7]; in vivo,< 20%
C[C@H]1O[C@@H](O[C@H]2[C@@H](O)C[C@H](O[C@H]3[C@@H](O)C[C@H](O[C@H]4CC[C@@]5(C)[C@H](CC[C@@H]6[C@@H]5C[C@@H](O)[C@]5(C)[C@@H](C7=CC(=O)OC7)CC[C@]65O)C4)O[C@@H]3C)O[C@@H]2C)C[C@H](O)[C@@H]1O [digoxin],exposures (Cmax and AUCinf) increased by,[8]; digoxin 0.5 mg single dose with 2D,24-58%
same,exposures (Cmax and AUCinf) increased by,"[8]; digoxin 0.5 mg single dose with 2D, listed as Digoxin",≤ 58%
same,exposures (Cmax and AUCinf) increased by,[8]; digoxin 0.5 mg single dose with 3D,15-16%
same,exposures (Cmax and AUCinf) increased by,"[8]; digoxin 0.5 mg single dose with 3D, listed as Digoxin",≤ 16%
"COC(=O)N[C@H](C(=O)N[C@@H](Cc1ccccc1)[C@@H](O)CN(Cc1ccc(-c2ccccn2)cc1)NC(=O)[C@@H](NC(=O)OC)C(C)(C)C)C(C)(C)C [ATV, Atazanavir]","Total bilirubin elevation Grade 3, subjects",[3]; ATV QD arm,10/24
same,"Total bilirubin elevation Grade 3, subjects",[3]; ATV QPM arm,16/24
same,"Ctrough, % higher",[3]; ATV+RTV QPM with 3D regimen,68%
same,"Cmax, AUC and Ctrough, % change",[3],≥ 20%
same,tolerability,[3],generally well tolerated
C=CC[C@@H]1/C=C(\C)C[C@H](C)C[C@H](OC)[C@H]2O[C@@](O)(C(=O)C(=O)N3CCCC[C@H]3C(=O)O[C@H](/C(C)=C/[C@@H]3CC[C@@H](O)[C@H](OC)C3)[C@H](C)[C@@H](O)CC1=O)[C@H](C)C[C@@H]2OC [tacrolimus],"tacrolimus DN_AUCinf, fold of tacrolimus exposure when administered alone",[9],57-86 fold
same,"tacrolimus DN_Cmax, fold of tacrolimus exposure when administered alone",[9],3.7-4.3 fold
same,"tacrolimus DN_C24, fold of tacrolimus exposure when administered alone",[9]; 24 h,17-25 fold
CC(C)c1nc(CN(C)C(=O)N[C@H](C(=O)N[C@@H](Cc2ccccc2)C[C@H](O)[C@H](Cc2ccccc2)NC(=O)OCc2cncs2)C(C)C)cs1 [ritonavir],"exposures (Cmax and AUCτ), % change",[5],±17%
same,"exposures (Cmax and AUCτ), effect",[5],not affected
same,Exposures increased by,[7]; [10],27-57%
"Cc1nnc(C(=O)NC(C)(C)c2nc(C(=O)NCc3ccc(F)cc3)c(O)c(=O)n2C)o1 [RAL, Raltegravir]",treatment discontinuations / premature discontinuation due to AE,[5]; co-administration of 3D regimen with HIV-1 ARV,no treatment discontinuations
same,tolerability,[5]; co-administration with 3D regimen,generally well tolerated
COC(=O)N[C@H](C(=O)N1CCC[C@H]1C(=O)Nc1ccc([C@@H]2CC[C@@H](c3ccc(NC(=O)[C@@H]4CCCN4C(=O)[C@@H](NC(=O)OC)C(C)C)cc3)N2c2ccc(C(C)(C)C)cc2)cc1)C(C)C [Compound 3],"exposures (Cmax and AUCτ), % change",[5],up to ±11%
same,"exposures (Cmax and AUCτ), effect",[5],not affected
same,Exposures increased by,[7]; [10],up to 26%
"Cc1cnc(C(=O)N[C@H]2CCCCC/C=C\[C@@H]3C[C@@]3(C(=O)NS(=O)(=O)C3CC3)NC(=O)[C@@H]3C[C@@H](Oc4nc5ccccc5c5ccccc45)CN3C2=O)cn1 [Compound 1, (2R,6S,13aS,14aR,16aS,Z)—N-(cyclopropylsulfonyl)-6-(5-methylpyrazine-2-carboxamido)-5,16-dioxo-2-(phenanthridin-6-yloxy)-1,2,3,5,6,7,8,9,10,11,13a,14,14a,15,16,16a-hexadecahydrocyclopropa[e]pyrrolo[1,2-a][1,4]diazacyclopentadecine-14a-carboxamide]","exposures (Cmax and AUCτ), % change",[5],up to ±32%
same,"exposures (Cmax and AUCτ), effect",[5],not affected
same,"Cmax, AUC or Ctrough, % change",[6],< 20%
same,AUCinf increased by,[7]; [10],98-116%
same,Cmax increased by,"[7]; single dose 3D or 2D with steady state KTZ 400 mg QD, healthy volunteers",37-72%
same,"exposures (Cmax and AUCτ), % higher",[3]; 3D regimen with LPV/r QPM or BID,≤ 117%
CC[C@H](C)C(=O)O[C@H]1C[C@H](O)C=C2C=C[C@H](C)[C@H](CC[C@@H](O)C[C@@H](O)CC(=O)O)[C@H]21 [Pravastatin],"AUC, % higher",[1]; statin with 3D or 2D,~80%
same,"Cmax, % higher",[1]; statin with 3D or 2D,about 40%
"Cc1cccc(C)c1OCC(=O)N[C@@H](Cc1ccccc1)[C@@H](O)C[C@H](Cc1ccccc1)NC(=O)[C@H](C(C)C)N1CCCNC1=O [LPV, Lopinavir]","Cmax, AUC and Ctrough, % change",[3],≤ 15%
same,Ctrough versus values observed with LPV/r 400/100 mg BID administered alone,[3]; [11],comparable
same,"Ctrough, % higher",[3]; [11],218%
